Reference: PubChem BioAssay AID330 (DTP/NCI, 2004)
Several values for one entry are separate records, joined by “and”; a condition that tells them apart may be missing. Equal entries are not always repeated. Toxic doses and inconclusive results are not listed. The calls were made as follows: active = survival T/C of 150% or more; inactive = T/C below 125% in these data.

Test system: P388 leukemia ip, CD2F1 mice, survival T/C
Experiment: NCI In Vivo Anticancer Drug Screen. Data for tumor model P388 Leukemia (intraperitoneal) in CD2F1 (CDF1) mice
Conditions: endpoint: median survival time, higher = longer survival
How it was run: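 Mice carrying the transplanted tumor received test compound or vehicle. Survival was recorded in each group, and the value is the treated-group measurement divided by that of the vehicle-treated control group.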

[1] = dose: 50.0 mg/kg/injection, schedule: Q01DX005 (ip), vehicle: saline with Tween-80
[2] = dose: 7.5 mg/kg/injection, schedule: Q01DX005 (ip), vehicle: Klucel (hydroxypropylcellulose) (HPC)
[3] = dose: 15.0 mg/kg/injection, schedule: Q01DX005 (ip), vehicle: Klucel (hydroxypropylcellulose) (HPC)
[4] = dose: 30.0 mg/kg/injection, schedule: Q01DX005 (ip), vehicle: Klucel (hydroxypropylcellulose) (HPC)
[5] = dose: 50.0 mg/kg/injection, schedule: Q01DX009 (ip), vehicle: saline
[6] = dose: 100.0 mg/kg/injection, schedule: Q01DX009 (ip), vehicle: saline
[7] = dose: 200.0 mg/kg/injection, schedule: Q01DX009 (ip), vehicle: saline
[8] = dose: 400.0 mg/kg/injection, schedule: Q01DX009 (ip), vehicle: saline
[9] = dose: 50.0 mg/kg/injection, schedule: Q01DX009 (ip), vehicle: saline with Tween-80
[10] = dose: 100.0 mg/kg/injection, schedule: Q01DX009 (ip), vehicle: saline with Tween-80
[11] = dose: 50.0 mg/kg/injection, schedule: Q01DX005 (ip), vehicle: Klucel (hydroxypropylcellulose) (HPC)
[12] = dose: 100.0 mg/kg/injection, schedule: Q01DX005 (ip), vehicle: Klucel (hydroxypropylcellulose) (HPC)

Measured: T/C

CCOc1c(N=Nc2ccccc2Cl)c(C)nn1C(=S)SC
inactive: dose: 60.0 mg/kg/injection, schedule: Q01DX005 (ip), vehicle: Klucel + Tween-80 103 % of control | dose: 120.0 mg/kg/injection, schedule: Q01DX005 (ip), vehicle: Klucel + Tween-80 112 % of control | dose: 240.0 mg/kg/injection, schedule: Q01DX005 (ip), vehicle: Klucel + Tween-80 103 % of control

CC1CC=CC(=O)CC1 (centres undefined)
inactive: dose: 50.0 mg/kg/injection, schedule: Q01DX009 (ip), vehicle: Klucel (hydroxypropylcellulose) (HPC) 112 % of control | dose: 100.0 mg/kg/injection, schedule: Q01DX009 (ip), vehicle: Klucel (hydroxypropylcellulose) (HPC) 117 % of control

CCN(CC)CCNc1cc(Nc2ccc([N+](=O)[O-])cc2)ccc1OC
inactive: dose: 12.5 mg/kg/injection, schedule: Q01DX005 (ip), vehicle: saline with Tween-80 108 % of control | dose: 25.0 mg/kg/injection, schedule: Q01DX005 (ip), vehicle: saline with Tween-80 106 % of control | [1] 99 % of control | dose: 200.0 mg/kg/injection, schedule: Q01DX005 (ip), vehicle: saline with Tween-80 87 % of control

CCOC(=O)C1=C(C(C)=O)C(c2ccc([N+](=O)[O-])cc2)C(C(C)=O)=C(C(=O)OCC)N1
inactive: [2] 101 % of control | [3] 104 % of control | [4] 102 % of control

N#CC1(C#N)C2C=CC(C3CCC=C32)C1(C#N)C#N (centres undefined)
inactive: dose: 6.25 mg/kg/injection, schedule: Q01DX009 (ip), vehicle: Klucel (hydroxypropylcellulose) (HPC) 100 % of control | dose: 12.5 mg/kg/injection, schedule: Q01DX009 (ip), vehicle: Klucel (hydroxypropylcellulose) (HPC) 110 % of control | dose: 25.0 mg/kg/injection, schedule: Q01DX009 (ip), vehicle: Klucel (hydroxypropylcellulose) (HPC) 106 % of control

O=C1NCC(=O)C(=O)N1
inactive: [5] 100 % of control and 106 % of control | [6] 101 % of control and 103 % of control | [7] 100 % of control and 110 % of control | [8] 103 % of control and 105 % of control

Cc1ccc2cccc(C(=O)N(C)C)c2[n+]1C
inactive: dose: 31.2 micrograms/kg/injection, schedule: Q04DX002 (ip), vehicle: saline 100 % of control | dose: 62.5 micrograms/kg/injection, schedule: Q04DX002 (ip), vehicle: saline 103 % of control

COc1c2c(c(O)c3c1C(=O)c1cccc(O)c1C3=O)C(OC1CC(N)C(O)C(C)O1)CC(O)(C(C)=O)C2 (centres undefined)
inactive: dose: 12.5 mg/kg/injection, schedule: Q04DX003 (ip), vehicle: water 118 % of control | dose: 25.0 mg/kg/injection, schedule: Q04DX003 (ip), vehicle: water 118 % of control | dose: 50.0 mg/kg/injection, schedule: Q04DX003 (ip), vehicle: water 100 % of control

COc1c2c(c(N3CCCC3)c3c1C(=O)c1ccccc1C3=O)C(=O)CCC2
inactive: dose: 100.0 mg/kg/injection, schedule: Q01DX001 (ip), vehicle: saline with Tween-80 100 % of control | dose: 200.0 mg/kg/injection, schedule: Q01DX001 (ip), vehicle: saline with Tween-80 105 % of control | dose: 400.0 mg/kg/injection, schedule: Q01DX001 (ip), vehicle: saline with Tween-80 94 % of control

COC1(OC)C2C=CC1CC2
inactive: [9] 107 % of control and 116 % of control | [10] 101 % of control | dose: 200.0 mg/kg/injection, schedule: Q01DX009 (ip), vehicle: saline with Tween-80 109 % of control

O=C(O)c1cnc2c(C(F)(F)F)cccc2c1Nc1ccc2c(c1)OCO2
inactive: [2] 92 % of control | [3] 101 % of control | [4] 105 % of control | dose: 120.0 mg/kg/injection, schedule: Q01DX005 (ip), vehicle: Klucel (hydroxypropylcellulose) (HPC) 101 % of control | dose: 240.0 mg/kg/injection, schedule: Q01DX005 (ip), vehicle: Klucel (hydroxypropylcellulose) (HPC) 96 % of control

O=C1c2ccccc2C(=O)N1c1ccc(C(F)(F)F)cc1[N+](=O)[O-]
inactive: dose: 100.0 mg/kg/injection, schedule: Q04DX003 (ip), vehicle: saline 91 % of control | dose: 200.0 mg/kg/injection, schedule: Q04DX003 (ip), vehicle: saline 100 % of control | dose: 400.0 mg/kg/injection, schedule: Q04DX003 (ip), vehicle: saline 93 % of control

[N-]=[N+]=CC(=O)NC(Cc1ccccc1)C(=O)NN (centres undefined)
inactive: dose: 25.0 mg/kg/injection, schedule: Q01DX005 (ip), vehicle: Klucel (hydroxypropylcellulose) (HPC) 107 % of control | [11] 98 % of control | [12] 110 % of control

CC12Cc3cnoc3C=C1CCC1C2CCC2(C)C1CCC2(C)O (centres undefined)
inactive: [1] 93 % of control | dose: 100.0 mg/kg/injection, schedule: Q01DX005 (ip), vehicle: saline with Tween-80 86 % of control

C=C1CCOC2(C(O)C(C)(O)CO)NC(=O)C1(O)NC2=O (centres undefined)
inactive: [5] 108 % of control | [6] 118 % of control | [7] 103 % of control | [8] 108 % of control

N#CC(C(=O)CCC(=O)NCCc1ccccc1)c1nc2ccccc2s1 (centres undefined)
inactive: dose: 60.0 mg/kg/injection, schedule: Q01DX005 (ip), vehicle: saline with Tween-80 103 % of control | dose: 120.0 mg/kg/injection, schedule: Q01DX005 (ip), vehicle: saline with Tween-80 100 % of control | dose: 240.0 mg/kg/injection, schedule: Q01DX005 (ip), vehicle: saline with Tween-80 100 % of control

Cc1csc(=NCc2cccnc2)n1C
inactive: dose: 6.25 mg/kg/injection, schedule: Q01DX009 (ip), vehicle: saline 100 % of control | dose: 12.5 mg/kg/injection, schedule: Q01DX009 (ip), vehicle: saline 107 % of control

CC(C)S(=O)(=O)n1c(N)nc2ccc(/C(=N/O)c3ccccc3)cc21
inactive: [11] 100 % of control | [12] 101 % of control | dose: 200.0 mg/kg/injection, schedule: Q01DX005 (ip), vehicle: Klucel (hydroxypropylcellulose) (HPC) 95 % of control

CC(C)c1ccc2c[n+]3ccccc3cc2c1
inactive: dose: 6.25 mg/kg/injection, schedule: Q01DX005 (ip), vehicle: Klucel (hydroxypropylcellulose) (HPC) 100 % of control and 108 % of control | dose: 12.5 mg/kg/injection, schedule: Q01DX005 (ip), vehicle: Klucel (hydroxypropylcellulose) (HPC) 106 % of control and 112 % of control

C[N+]1(C)N=C([O-])N(c2ccc(Cl)cc2)C1=O
inactive: dose: 100.0 mg/kg/injection, schedule: Q04DX002 (ip), vehicle: saline 100 % of control | dose: 200.0 mg/kg/injection, schedule: Q04DX002 (ip), vehicle: saline 103 % of control | dose: 400.0 mg/kg/injection, schedule: Q04DX002 (ip), vehicle: saline 102 % of control

c1ccc(C23OOC(c4ccccc4)(c4ccccc42)c2ccccc23)cc1
inactive: dose: 5.0 mg/kg/injection, schedule: Q01DX001 (ip), vehicle: Klucel (hydroxypropylcellulose) (HPC) 96 % of control | dose: 10.0 mg/kg/injection, schedule: Q01DX001 (ip), vehicle: Klucel (hydroxypropylcellulose) (HPC) 96 % of control | dose: 20.0 mg/kg/injection, schedule: Q01DX001 (ip), vehicle: Klucel (hydroxypropylcellulose) (HPC) 89 % of control

O=[Se]([O][Sn]([O][Se](=O)c1ccccc1)([O][Se](=O)c1ccccc1)[c]1ccccc1)c1ccccc1 (centres undefined)
inactive: dose: 25.0 mg/kg/injection, schedule: Q01DX009 (ip), vehicle: saline with Tween-80 104 % of control and 96 % of control | [9] 100 % of control and 103 % of control and 118 % of control | [10] 111 % of control and 121 % of control and 96 % of control

COC(=O)C1C/C=C\C=C/N(C)C1=O (centres undefined)
inactive: dose: 100.0 mg/kg/injection, schedule: Q04DX002 (ip), vehicle: saline with Tween-80 102 % of control | dose: 200.0 mg/kg/injection, schedule: Q04DX002 (ip), vehicle: saline with Tween-80 101 % of control | dose: 400.0 mg/kg/injection, schedule: Q04DX002 (ip), vehicle: saline with Tween-80 101 % of control
